Values joined by “and” are separate entries in the source; they are usually repeats but may differ in a detail not shown here. Equal entries are not always repeated. Toxic doses and inconclusive results are not listed.
Tested on: P388 leukemia ip, CD2F1 mice, survival T/C
Assay: NCI In Vivo Anticancer Drug Screen. Data for tumor model P388 Leukemia (intraperitoneal) in CD2F1 (CDF1) mice
Settings: endpoint: median survival time, higher = longer survival
Procedure, shortened: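 Mice carrying the transplanted tumor received test compound or vehicle. Survival was recorded in each group, and the value is the treated-group measurement divided by that of the vehicle-treated control group.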

[1] = dose: 25.0 mg/kg/injection, schedule: Q04DX003 (ip), vehicle: water
[2] = dose: 100.0 mg/kg/injection, schedule: Q04DX003 (ip), vehicle: water
[3] = dose: 60.0 mg/kg/injection, schedule: Q01DX005 (ip), vehicle: saline with Tween-80
[4] = dose: 120.0 mg/kg/injection, schedule: Q01DX005 (ip), vehicle: saline with Tween-80
[5] = dose: 240.0 mg/kg/injection, schedule: Q01DX005 (ip), vehicle: saline with Tween-80

Q: `CC(=O)Nc1cc(Cl)c2ncn(C3OC(CO)C(O)C3O)c2n1` (stereo not given) was tested. Which T/C [1] did it give?
A: 111 % of control

Q: And the T/C (dose: 50.0 mg/kg/injection, schedule: Q04DX003 (ip), vehicle: water)?
A: 112 % of control

Q: And the T/C [2]?
A: 109 % of control

Q: What about the T/C (dose: 200.0 mg/kg/injection, schedule: Q04DX003 (ip), vehicle: water) of the same compound?
A: 100 % of control

Q: What about the T/C (dose: 400.0 mg/kg/injection, schedule: Q04DX003 (ip), vehicle: water) of the same compound?
A: 100 % of control

Q: With `Cc1ccccc1N=C(CCl)Nc1ccccc1C` as the compound, how does the T/C (dose: 50.0 mg/kg/injection, schedule: Q01DX005 (ip), vehicle: saline with Tween-80) read?
A: 94 % of control

Q: What about the T/C (dose: 100.0 mg/kg/injection, schedule: Q01DX005 (ip), vehicle: saline with Tween-80) of the same compound?
A: 99 % of control

Q: For `CCOC(=O)c1cnc2ncccn12`, which T/C (dose: 50.0 mg/kg/injection, schedule: Q01DX009 (ip), vehicle: Klucel (hydroxypropylcellulose) (HPC)) is on record?
A: 99 % of control

Q: What about the T/C (dose: 100.0 mg/kg/injection, schedule: Q01DX009 (ip), vehicle: Klucel (hydroxypropylcellulose) (HPC)) of the same compound?
A: 101 % of control

Q: What about the T/C (dose: 200.0 mg/kg/injection, schedule: Q01DX009 (ip), vehicle: Klucel (hydroxypropylcellulose) (HPC)) of the same compound?
A: 91 % of control

Q: `CC(C)C1SCCS1` was tested. Which T/C (dose: 50.0 mg/kg/injection, schedule: Q01DX001 (ip), vehicle: saline with Tween-80) did it give?
A: 102 % of control

Q: What about the T/C (dose: 100.0 mg/kg/injection, schedule: Q01DX001 (ip), vehicle: saline with Tween-80) of the same compound?
A: 106 % of control

Q: And the T/C (dose: 200.0 mg/kg/injection, schedule: Q01DX001 (ip), vehicle: saline with Tween-80)?
A: 99 % of control

Q: `O=C(CO)CC(=O)CCC(=O)Nc1cccc([N+](=O)[O-])c1` was tested. Which T/C [3] did it give?
A: 105 % of control

Q: And the T/C [4]?
A: 111 % of control

Q: And the T/C [5]?
A: 105 % of control

Q: `Cc1ccc(N2C(=O)C3CSCN3C2=O)cc1` (stereo not given) was tested. Which T/C [3] did it give?
A: 101 % of control

Q: What about the T/C [4] of the same compound?
A: 97 % of control

Q: What about the T/C [5] of the same compound?
A: 92 % of control

Q: What does the source list for `C[N+]1=C2CCCCCC2=C(N)CC1`?
A: T/C (dose: 3.13 mg/kg/injection, schedule: Q04DX003 (ip), vehicle: saline): 100 % of control; T/C (dose: 6.25 mg/kg/injection, schedule: Q04DX003 (ip), vehicle: saline): 104 % of control; T/C (dose: 12.5 mg/kg/injection, schedule: Q04DX003 (ip), vehicle: saline): 100 % of control

Q: Which results are given for `COc1cccc2c1C(=O)c1c(O)c3c(c(O)c1C2=O)C[C@@](O)(/C(CO)=N/NC(=O)c1ccc(Cl)c(Cl)c1)C[C@@H]3OC1CC(N)C(O)C(C)O1` (stereo not given in full)?
A: T/C (dose: 0.12 mg/kg/injection, schedule: Q01DX009 (ip), vehicle: water): 116 % of control; T/C (dose: 1.0 mg/kg/injection, schedule: Q01DX009 (ip), vehicle: water): 153 % of control and 172 % of control; T/C (dose: 1.56 mg/kg/injection, schedule: Q04DX003 (ip), vehicle: water): 108 % of control; T/C (dose: 2.0 mg/kg/injection, schedule: Q01DX009 (ip), vehicle: water): 154 % of control and 176 % of control; T/C (dose: 2.0 mg/kg/injection, schedule: Q04DX003 (ip), vehicle: saline): 99 % of control and 105 % of control and 118 % of control; T/C (dose: 3.13 mg/kg/injection, schedule: Q04DX003 (ip), vehicle: water): 104 % of control and 121 % of control; T/C (dose: 4.0 mg/kg/injection, schedule: Q01DX009 (ip), vehicle: water): 202 % of control and 205 % of control; T/C (dose: 4.0 mg/kg/injection, schedule: Q04DX003 (ip), vehicle: saline): 108 % of control and 116 % of control; T/C (dose: 6.25 mg/kg/injection, schedule: Q04DX003 (ip), vehicle: water): 155 % of control; T/C (dose: 8.0 mg/kg/injection, schedule: Q01DX009 (ip), vehicle: water): 109 % of control and 241 % of control; T/C [1]: 166 % of control and 167 % of control; T/C [2]: 124 % of control; T/C (dose: 512.0 mg/kg/injection, schedule: Q04DX003 (ip), vehicle: saline): 99 % of control; T/C (dose: 1024.0 mg/kg/injection, schedule: Q04DX003 (ip), vehicle: saline): 90 % of control

Q: How did the T/C (dose: 6.25 mg/kg/injection, schedule: Q01DX009 (ip), vehicle: saline) turn out when `CC[N](CC)[Ge]([CH2]C)[CH2]C.CC[N](CC)[Ge]([CH2]C)[CH2]C` was run?
A: 106 % of control

Q: And the T/C (dose: 12.5 mg/kg/injection, schedule: Q01DX009 (ip), vehicle: saline)?
A: 109 % of control

Q: And the T/C (dose: 50.0 mg/kg/injection, schedule: Q04DX003 (ip), vehicle: saline)?
A: 116 % of control

Q: And the T/C (dose: 100.0 mg/kg/injection, schedule: Q04DX003 (ip), vehicle: saline)?
A: 114 % of control
